This is an account of results in ChEMBL document CHEMBL1135839, “Design and synthesis of novel benzofurans as a new class of antifungal agents targeting fungal N-myristoyltransferase. Part 2” (Bioorg Med Chem Lett, 2002).

As a reminder, the IC50 is the concentration that inhibits the measured activity by half. One may read the AUC as concentration integrated over time. What is called half-life is the time needed for the level to fall by half in the phase considered. Higher therefore signals slow loss. Broadly, the ED50 is the dose that gives a 50% effect, or the effect in half of the subjects.

The target of data set [1] is Candida albicans N-myristoyltransferase (Candida albicans). The data set can be described thus: Inhibitory activity against Candida albicans N-Myristoyltransferase (CaNmt) assessed as inhibitory concentration using substrate peptide and myristotyl-CoA at 0.5 uM.
In data set [2] the target is T1, Peptide N-myristoyltransferase (Homo sapiens, UniProt P30419+O60551).
T1 sequence (P30419 whole entry): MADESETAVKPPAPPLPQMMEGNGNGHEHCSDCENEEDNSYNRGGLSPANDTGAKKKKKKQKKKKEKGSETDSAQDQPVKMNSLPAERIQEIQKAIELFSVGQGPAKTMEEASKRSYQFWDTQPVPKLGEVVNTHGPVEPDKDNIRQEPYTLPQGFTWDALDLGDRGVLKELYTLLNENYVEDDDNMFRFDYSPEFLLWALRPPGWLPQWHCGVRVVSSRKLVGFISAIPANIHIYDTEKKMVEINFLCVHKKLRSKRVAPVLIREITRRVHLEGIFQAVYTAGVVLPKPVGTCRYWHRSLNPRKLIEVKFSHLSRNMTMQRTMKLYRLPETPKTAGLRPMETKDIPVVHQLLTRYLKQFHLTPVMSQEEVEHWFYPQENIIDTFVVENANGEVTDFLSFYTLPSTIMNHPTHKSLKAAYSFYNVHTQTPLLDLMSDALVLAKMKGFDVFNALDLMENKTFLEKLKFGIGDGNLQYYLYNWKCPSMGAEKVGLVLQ
T1 sequence (O60551 whole entry): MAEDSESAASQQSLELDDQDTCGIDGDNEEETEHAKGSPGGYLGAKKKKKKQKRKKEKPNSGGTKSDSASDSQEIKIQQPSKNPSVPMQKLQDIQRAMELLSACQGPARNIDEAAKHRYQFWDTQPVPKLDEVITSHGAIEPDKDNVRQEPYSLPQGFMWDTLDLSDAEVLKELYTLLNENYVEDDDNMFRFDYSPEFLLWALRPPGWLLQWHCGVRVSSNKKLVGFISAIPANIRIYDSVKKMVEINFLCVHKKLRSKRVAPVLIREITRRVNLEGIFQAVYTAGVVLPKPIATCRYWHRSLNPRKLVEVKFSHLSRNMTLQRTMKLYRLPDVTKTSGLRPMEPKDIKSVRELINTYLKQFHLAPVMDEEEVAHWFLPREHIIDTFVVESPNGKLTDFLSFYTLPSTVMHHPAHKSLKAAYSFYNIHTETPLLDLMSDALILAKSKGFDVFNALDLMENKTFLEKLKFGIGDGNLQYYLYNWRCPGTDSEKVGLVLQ
Description: Inhibitory activity against human N-Myristoyltransferase (HsNmt) assessed as inhibitory concentration using substrate peptide and myristotyl-CoA at 0.5 uM. It is filed as protein assay.

Data set [3] can be described thus: Plasma concentration expressed as area under curve after intravenous administration was determined in rat. It is filed as ADME, organism-based.
The subject of data set [4] is Candida albicans. The data set can be described thus: Antifungal activity expressed as inhibitory concentration against Candida albicans CY1002 in calf serum. It is filed as functional, organism-based.
The nature of data set [5]: Half life of compound determined after intravenous administration to rat. It is filed as ADME, organism-based. Conditions: in vivo.
In data set [6] the test system is Candida albicans. Description: Antifungal activity expressed as inhibitory concentration against Candida albicans CY1002 in YNBPB medium. It is filed as functional, organism-based.
Data set [7] addresses Candida albicans N-myristoyltransferase (Candida albicans). Description: Inhibitory activity against Candida albicans N-Myristoyltransferase (Nmt).
Data set [8] has the same target. Description: Inhibitory activity against Candida albicans (Nmt) assessed as inhibitory concentration (nM).
Data set [9] deals with Rattus norvegicus. The data set can be described thus: Effective dose required against Candida albicans for 50% survival on intravenous administration in rats. It is filed as functional.
For data set [10], the target named is Candida albicans N-myristoyltransferase (Candida albicans). The data set can be described thus: Inhibitory activity against Candida albicans (Nmt) assessed as inhibitory concentration.
Data set [11] relates to Candida albicans. Description: Antifungal activity expressed as inhibitory concentration against Candida albicans in calf serum. It is filed as functional, organism-based.

Regarding `Cc1c(COc2cccc(F)c2)oc2cccc(OCCCNCc3cccnc3)c12`, the concentration for half-maximal inhibition (IC50) in data set [1] was 110 nM; in data set [2] it was more than 110000 nM; in [4], 3300 nM; in [6], 110 nM. The AUC in data set [3] worked out at 370 ng·h/mL. Also, the half-life in [5] was 1.5 h.
For `Cc1c(C(=O)Nc2ccccc2)oc2cccc(OCCCNCc3cccnc3)c12`, the IC50 in [1] is 2200 nM; in data set [2], more than 480000 nM; in data set [6] it was 12000 nM. The compound further returned an AUC in [3] of 240 ng·h/mL. Moreover, in [5], the half-life was 0.9 h.
For the compound `Cc1c(COc2cccc(F)c2F)oc2cccc(OCCCNCc3cccnc3)c12`, the exposure (AUC) in data set [3] is 500 ng·h/mL. In addition, the IC50 in [4] worked out at 570 nM; in data set [6], 80 nM. Besides, the half-life in data set [5] is 1.9 h.
As to `Cc1c(COc2ccc(C#N)cc2)oc2cccc(OCCCNCc3cccnc3)c12`, the IC50 in data set [1] was 9.4 nM; in data set [2] it was more than 460000 nM; in data set [4], 1400 nM; in data set [7] it was 9.4 nM; in data set [6], 160 nM. Besides, the AUC in data set [3] came to 340 ng·h/mL. Also, in [5], the half-life is 1.2 h.
For the compound `Cc1c(COc2ccc(F)cc2)oc2cccc(OCCCNCc3cccnc3)c12`, the half-inhibitory concentration (IC50) in data set [1] was 5.2 nM; in data set [2], 67000 nM; in data set [8], 5.2 nM; in data set [4], 700 nM; in data set [6], 21 nM. For the same compound, the AUC in data set [3] came out at 340 ng·h/mL. For the same compound, the half-life in data set [5] was 1.9 h.
Take `Cc1c(COc2ccc(Br)cc2F)oc2cccc(OCCCNCc3cccnc3)c12`: the IC50 was 28 nM in data set [1], more than 400000 nM in data set [2], 1300 nM in [4] and 74 nM in data set [6]. For the same compound, the ED50 in [9] was more than 30 mg/kg. The same compound displayed an AUC in [3] of 360 ng·h/mL. In addition, in [5], the half-life was 3.6 h.
With `CCOC(=O)c1oc2cccc(OCCCNCc3cccnc3)c2c1C`, the IC50 in data set [2] was more than 450000 nM. In addition, the AUC in data set [3] was 330 ng·h/mL. In data set [5], the half-life was 0.4 h.
On to `Cc1c(CCc2ccccc2)oc2cccc(OCCCNCc3cccnc3)c12`, for which the half-maximal inhibitory concentration (IC50) in [1] is 1200 nM; in [2] it was 12000 nM; in data set [4], more than 240000 nM; in [6], 13000 nM. Further, the AUC in data set [3] is 290 ng·h/mL. In [5], this compound showed a half-life of 1.1 h.
As to `Cc1c(COc2ccc(F)cc2F)oc2cccc(OCCCNCc3cccnc3)c12`, the half-maximal inhibitory concentration (IC50) in data set [1] was 7.5 nM; in [2], more than 450000 nM; in data set [8], 7.5 nM; in data set [4] it was 340 nM; in data set [6], 30 nM. The 50% effect level in data set [9] (ED50) was put at a dose of 7.1 mg/kg. The compound also gave an AUC in data set [3] of 420 ng·h/mL. This compound showed a half-life in data set [5] of 1.6 h.
Regarding `Cc1c(COc2ccccc2)oc2cccc(OCCCNCc3cccnc3)c12`, the half-maximal inhibitory concentration (IC50) in data set [1] is 72 nM; in data set [2] it was 77000 nM; in [6], 370 nM. Also, the AUC in data set [3] was 670 ng·h/mL. In addition, the half-life in data set [5] is 1.9 h.
The compound `Cc1c(COc2ccc(F)c(F)c2F)oc2cccc(OCCCNCc3cccnc3)c12` came in with an ED50 in data set [9] of 7.1 mg/kg. The AUC in data set [3] is 330 ng·h/mL. The IC50 is 330 nM in data set [4] and 35 nM in data set [6]. The half-life in data set [5] is 2 h.
Turning to `Cc1c(COc2ccccc2F)oc2cccc(OCCCNCc3cccnc3)c12`, the IC50 is 8.3 nM in data set [1]; more than 470000 nM in [2]; 8.3 nM in [10]; 600 nM in data set [4]; 40 nM in data set [6]. In [3], this compound yielded an exposure (AUC) of 560 ng·h/mL. This compound also gave a half-life in data set [5] of 1.6 h.
In the case of `Cc1c(COc2ccccc2C#N)oc2cccc(OCCCNCc3cccnc3)c12`, the half-maximal inhibitory concentration (IC50) in data set [1] came out at 17 nM; in data set [2], 19000 nM; in data set [4] it was 3300 nM; in [6], 1200 nM. The area under the curve (AUC) in [3] was 280 ng·h/mL. Also, the half-life in [5] was 0.5 h.
As for `Cc1c(COc2ccc(Cl)cc2)oc2cccc(OCCCNCc3cccnc3)c12`, the IC50 in [1] was 73 nM; in [2] it was more than 110000 nM; in data set [4], 6600 nM; in data set [6], 920 nM. This compound also gave an AUC in data set [3] of 330 ng·h/mL. In data set [5], this compound showed a half-life of 2.4 h.
Consider `Cc1c(CSc2ccccc2)oc2cccc(OCCCNCc3cccnc3)c12`, for which, in data set [3], the AUC came out at 390 ng·h/mL. In addition, the half-maximal inhibitory concentration (IC50) was found to be 180000 nM in data set [4] and 11000 nM in data set [6]. In data set [5], the half-life is 1.4 h.
Regarding `OC(Cn1cncn1)(Cn1cncn1)c1ccc(F)cc1F` [FLUCONAZOLE], the AUC in [3] was determined as 19.6 ng·h/mL. Also, the IC50 in data set [4] and in data set [11] was 500 nM each time. The half-life in data set [5] is 4 h.
